{
  "source": "patent US20260265703A1",
  "about": "“DEGRON FUSION PROTEINS AND METHODS OF PRODUCTION AND USE THEREOF” (BlueRock Therapeutics LP, priority 2023, published 2026)",
  "key": {"[1]": {"test_system": "gene-edited iPSC clones (degron or superdegron linked to GAPDH)", "type": "cell-based"}, "[2]": {"test_system": "dopaminergic (DA) neurons differentiated from gene-edited iPSC clones (degron linked to GAPDH)", "assay": "Annexin V Incucyte cell death of DA neurons differentiated from gene-edited iPSCs", "type": "cell-based", "procedure": "(§1) In order to determine the applicability of the degron-comprising targeting constructs to differentiated cells, unedited parental iPSCs and gene-edited iPSC clones B and C were differentiated into dopaminergic (DA) neurons as depicted in FIG. 13. The differentiation protocol was adapted from Kriks et al., 2011, Nature 480 (7378): 547-551 and U.S. Pat. No. 10,711,243, which are hereby incorporated by reference in their entireties. Cell death was assessed post-thaw after cells were plated down in the presence and absence of various concentrations of POM. Annexin V dye was used to quantify cell death in an Incucyte imager over a period of 5 days.\n(§2) Cells were differentiated from iPSCs into DA neurons using the same protocol as depicted in FIG. 13. DA neurons were plated and stained with Annexin V dye and cell death was measured using an Incucyte Imager over a period of 144 hours."}, "[3]": {"test_system": "iPSCs transfected with degron or superdegron GAPDH targeting constructs", "assay": "Linker length: amplicon depletion after POM relative to untreated cells", "type": "cell-based", "conditions": "3 μM POM; construct with 3 aa linker and degron", "from_the_text": "(§3) Two sets of targeting constructs were generated as described in Section 8.1. The first set of targeting constructs were designed to comprise a linker, a degron or superdegron sequence, an IRES sequence, and a GFP transgene sequence flanked by GAPDH homology arms as depicted in FIGS. 7G-7J, wherein the linker lengths were 3 aa (linker 1, GGS), 15 aa (linker 2, SEQ ID NO:23), 27 aa (linker 3, SEQ ID NO:103) and 10 aa (linker 4, SEQ ID NO:15). The second set of targeting constructs were designed to comprise a linker and a degron or superdegron sequence flanked by GAPDH homology arms as depicted in FIGS. 7A-7D. For both sets, the homology arms were designed to enable integration of the construct in the endogenous GAPDH locus, immediately 5′ of the GAPDH endogenous STOP codon. iPSCs were transfected with each construct individually.\nNext, the iPSCs transfected with the second set of targeting constructs were evaluated, wherein amplicon depletion was assessed following POM treatment relative to untreated cells. […] Taken together, targeting construct linker length and degron type might be key factors to trigger cell death in gene-edited cells."}, "[4]": {"biological_target": "degron-fused GAPDH protein (Homo sapiens, UniProt P04406+Q96SW2)", "sequence (P04406 other isoform, or with tags, fused parts or gaps)": "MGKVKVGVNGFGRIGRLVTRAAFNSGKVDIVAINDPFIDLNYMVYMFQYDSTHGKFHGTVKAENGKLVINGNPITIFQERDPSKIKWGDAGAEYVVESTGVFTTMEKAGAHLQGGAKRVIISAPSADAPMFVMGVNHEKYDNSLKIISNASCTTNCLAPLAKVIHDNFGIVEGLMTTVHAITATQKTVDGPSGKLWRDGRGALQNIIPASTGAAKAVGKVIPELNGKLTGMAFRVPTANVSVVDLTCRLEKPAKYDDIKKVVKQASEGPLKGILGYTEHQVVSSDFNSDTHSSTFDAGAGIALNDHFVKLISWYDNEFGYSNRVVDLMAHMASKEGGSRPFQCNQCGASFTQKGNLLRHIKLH", "sequence (Q96SW2 whole entry, the tested form may be a part)": "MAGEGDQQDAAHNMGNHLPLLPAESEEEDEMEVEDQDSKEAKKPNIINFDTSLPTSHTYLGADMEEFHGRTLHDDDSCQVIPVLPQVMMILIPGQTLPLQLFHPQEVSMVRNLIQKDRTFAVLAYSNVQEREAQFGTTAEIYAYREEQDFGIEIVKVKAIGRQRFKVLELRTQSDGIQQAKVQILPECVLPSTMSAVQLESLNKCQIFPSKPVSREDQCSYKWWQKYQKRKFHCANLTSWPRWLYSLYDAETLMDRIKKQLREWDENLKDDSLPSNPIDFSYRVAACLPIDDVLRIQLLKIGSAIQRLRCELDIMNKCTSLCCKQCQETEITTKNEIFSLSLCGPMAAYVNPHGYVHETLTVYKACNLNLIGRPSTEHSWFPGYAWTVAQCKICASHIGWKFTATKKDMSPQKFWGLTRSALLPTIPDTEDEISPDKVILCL", "sequence (Q16531 whole entry, further chain, the tested form may be a part)": "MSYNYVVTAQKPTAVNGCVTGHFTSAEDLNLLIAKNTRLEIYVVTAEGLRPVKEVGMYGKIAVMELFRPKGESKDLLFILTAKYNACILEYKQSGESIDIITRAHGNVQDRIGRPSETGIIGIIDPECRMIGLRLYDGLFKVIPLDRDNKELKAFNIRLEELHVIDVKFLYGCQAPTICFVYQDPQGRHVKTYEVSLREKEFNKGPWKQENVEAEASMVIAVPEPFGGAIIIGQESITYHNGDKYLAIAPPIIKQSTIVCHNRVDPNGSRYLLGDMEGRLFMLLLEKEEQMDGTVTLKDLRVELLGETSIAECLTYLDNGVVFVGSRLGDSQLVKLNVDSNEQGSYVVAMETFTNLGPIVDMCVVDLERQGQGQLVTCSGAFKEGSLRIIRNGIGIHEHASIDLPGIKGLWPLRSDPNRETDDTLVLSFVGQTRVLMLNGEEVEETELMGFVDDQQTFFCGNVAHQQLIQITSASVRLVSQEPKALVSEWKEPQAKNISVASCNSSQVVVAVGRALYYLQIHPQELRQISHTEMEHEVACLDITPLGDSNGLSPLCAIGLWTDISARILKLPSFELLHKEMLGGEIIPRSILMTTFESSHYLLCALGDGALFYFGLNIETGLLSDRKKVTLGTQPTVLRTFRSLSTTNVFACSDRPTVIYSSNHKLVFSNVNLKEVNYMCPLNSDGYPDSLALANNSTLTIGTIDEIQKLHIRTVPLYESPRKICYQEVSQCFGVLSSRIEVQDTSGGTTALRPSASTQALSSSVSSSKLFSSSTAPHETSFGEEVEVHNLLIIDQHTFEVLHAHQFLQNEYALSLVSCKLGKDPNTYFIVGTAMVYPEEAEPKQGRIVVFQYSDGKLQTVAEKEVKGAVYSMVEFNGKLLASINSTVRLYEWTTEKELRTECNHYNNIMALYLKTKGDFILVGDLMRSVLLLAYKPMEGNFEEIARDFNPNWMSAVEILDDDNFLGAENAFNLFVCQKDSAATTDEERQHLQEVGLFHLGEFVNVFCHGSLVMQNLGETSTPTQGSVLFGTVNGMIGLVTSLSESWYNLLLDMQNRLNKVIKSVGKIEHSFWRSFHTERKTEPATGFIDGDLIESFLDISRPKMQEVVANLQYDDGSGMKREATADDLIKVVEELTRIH", "conditions": "one day treatment with 3 μM POM; degron and superdegron iPSC clones", "procedure": "To determine whether gene-editing of iPSCs with a targeting construct, wherein the homology arms of which enable its integration in the endogenous GAPDH locus, affects the expression of GAPDH, three clones bi-allelically modified with a targeting construct comprising a 3 aa linker, GGS and a degron (as depicted in FIG. 7G) and one clone bi-allelically modified with superdegron-comprising targeting construct (as depicted in FIG. 7J) were treated with 3 μM POM for up to 3 days."}, "[5]": {"test_system": "iPSCs edited with a construct comprising a degron fused to GAPDH as well as GFP (GFP-positive)", "assay": "Depletion of GFP-positive gene-edited iPSCs in a mixture with unedited cells after POM", "type": "cell-based", "conditions": "3 μM POM for 6d; heterogenous mixture; FIG. 7G construct", "procedure": "(§4) Functionality of the kill switch was tested in iPSCs using the targeting construct depicted in FIG. 7G, which comprises a linker, a degron sequence, an IRES, and a GFP transgene sequence flanked by GAPDH homology arms. On the day of Nucleofection, iPSCs were harvested and resuspended in Lonza P3 primary cell nucleofection buffer. Ribonucleoproteins (RNPs) were complexed with sgRNAs using 1:2 ratio of protein:sgRNA (IDT). Nucleofection of complexed RNP together with a targeting construct into resuspended iPSCs was accomplished using LONZA 4D Nucleofector. The Nucleofected cells were then plated and assessed for targeting events.\n(§5) A heterogenous mixture of unedited cells (GFP-negative) and cells edited with a construct depicted in FIG. 7G, comprising a degron fused to GAPDH as well as GFP (GFP-positive) were treated with 3 μM pomalidomide (POM) for 6d or fed with complete medium without POM (untreated)."}, "[6]": {"test_system": "DA neurons derived from unedited parental iPSCs", "assay": "Annexin V Incucyte cell death of DA neurons derived from unedited parental iPSCs", "type": "cell-based", "procedure": "as §1, §2"}, "[7]": {"test_system": "unedited cells (GFP-negative) iPSCs", "assay": "Effect of POM on unedited cells in the mixture with gene-edited iPSCs", "type": "cell-based", "conditions": "3 μM POM for 6d; heterogenous mixture", "procedure": "as §4, §5"}, "[8]": {"test_system": "myeloid progenitor (MP) cells differentiated from biallelically gene-edited iPSC clones A, B, and C", "assay": "AO/PI Incucyte cell death of myeloid progenitor cells differentiated from gene-edited iPSCs", "type": "cell-based", "conditions": "1 μM POM, 108 hours", "from_the_text": "(§6) To expand the applicability of the degron-comprising constructs to additional differentiated cell types, unedited parental iPSCs and biallelically gene-edited iPSC clones A, B, and C comprising targeting construct as depicted in FIG. 7G were differentiated into myeloid progenitor (MP) cells as depicted in FIG. 17. The differentiation protocol was adapted from Douvaras et al., 2017 Jun. 6; 8 (6): 1516-1524 and PCT publication nos. WO 2023/150089 A1 and WO 2017/152081 A1, which are hereby incorporated by reference in their entireties. Cell death was assessed post-thaw after MP cells were plated down in the presence and absence of POM. Acridine Orange/Propidium Iodine (AO/PI) dye was used to quantify cell death in an Incucyte Imager over a period of 108 hours."}, "[9]": {"test_system": "myeloid progenitor (MP) cells differentiated from unedited parental iPSCs", "assay": "AO/PI Incucyte cell death of myeloid progenitor cells from unedited parental iPSCs", "type": "cell-based", "conditions": "1 μM POM; 108 hours", "from_the_text": "as §6"}, "[10]": {"test_system": "pool of iPSCs transfected with degron or superdegron GAPDH IRES-GFP targeting constructs", "assay": "Linker length: flow cytometry of GFP signal depletion in transfected iPSC pools", "type": "cell-based", "conditions": "3 μM POM for 4 days", "from_the_text": "as §3\nA pool of iPSCs transfected with the first set of targeting constructs, potentially comprising both mono-allelically and bi-allelically gene edited iPSCs, were evaluated using flow cytometry, wherein the depletion of GFP signal was assessed following treatment with 3 μM POM for 4 days. Among gene-edited iPSCs, those that were transfected with the superdegron-comprising targeting construct had the lowest percentage of GFP-positive cells, whereas approximately ⅓ to ½ of […] cells transfected with one of the degron-comprising targeting constructs were GFP-positive."}, "[11]": {"test_system": "unedited parental cells (iPSCs)", "assay": "Growth of unedited parental iPSCs under POM", "type": "cell-based", "conditions": "0.5 μM POM for 5 days", "procedure": "The same gene-edited iPSC clones in Example 4 were treated with 0.5 μM POM for 5 days to determine if there were any differences between the survival rates."}, "GAPDH expression": {"test_system": "GAPDH expression", "assay": "qPCR of GAPDH expression in gene-edited iPSC clones", "type": "cell-based", "conditions": "3 μM POM for up to 3 days; three degron clones and one superdegron clone"}, "[12]": {"test_system": "iPSC clone bi-allelically modified with a degron fused to GAPDH and IRES-GFP", "assay": "Incucyte live cells/well of a bi-allelically modified iPSC clone under POM", "type": "cell-based", "conditions": "1 μM POM", "from_the_text": "The percentage of live cells/well was quantified at several timepoints using the Incucyte software and normalized for the number of live cells/well at the first image timepoint."}},
  "data": [
    {"molecule": "Nc1cccc2c1C(=O)N(C1CCC(=O)NC1=O)C2=O", "note": "(stereo not shown) [POM, pomalidomide]", "values": [
      {"measurement": "killing of gene-edited iPSCs", "setting": "[1]; 0.5 μM POM for 5 days, degron and superdegron clones of Example 4", "value": "complete killing of all gene-edited iPSCs"},
      {"measurement": "POM concentration sufficient to achieve complete killing", "setting": "[1]; degron construct, monitored 5 days, range 0.03125 μM to 10 μM", "value": 0.5, "unit": "µM"},
      {"measurement": "POM concentration able to trigger apoptosis", "setting": "[1]; degron construct, monitored 5 days, range 0.03125 μM to 10 μM, data not shown", "value": 0.25, "unit": "µM"},
      {"measurement": "lowest POM concentration evaluated, associated with apoptosis of all cells", "setting": "[1]; superdegron construct, monitored 5 days", "value": 0.03125, "unit": "µM"},
      {"measurement": "POM concentration giving nearly complete cell death", "setting": "[2]; Clone A or Clone C, by 144 hours, range 0.01 μM to 100 μM", "value": 0.1, "unit": "µM"},
      {"measurement": "POM concentration giving complete killing (lowest concentration evaluated)", "setting": "[2]; DA neurons derived from clone B, 5-day treatment", "value": 10, "unit": "nM"},
      {"measurement": "death of neurons at all POM concentrations evaluated", "setting": "[2]; clone B and clone C, by day 5, 0.13 μM-1 μM POM", "value": "complete death of all neurons"},
      {"measurement": "amplicon depletion relative to untreated cells", "setting": "[3]", "value": "associated with amplicon depletion"},
      {"measurement": "GAPDH protein by western blot", "setting": "[4]", "value": "completely depleted"},
      {"measurement": "effect on the population of edited GFP-positive cells", "setting": "[5]", "value": "depleted the population of edited GFP-positive cells"},
      {"measurement": "cell death at any POM concentration tested", "setting": "[6]; 0.01 μM to 100 μM POM, 144 hours", "value": "No differences in cell death"},
      {"measurement": "neuronal death with vs without POM", "setting": "[6]; various POM concentrations, 5 days", "value": "No differences in neuronal death"},
      {"measurement": "effect on unedited cells", "setting": "[7]", "value": "did not affect unedited cells"},
      {"measurement": "cell death of gene-edited MP clones", "setting": "[8]", "value": "died in response to POM"},
      {"measurement": "cell death of unedited parental MP line", "setting": "[9]", "value": "no increase in cell death"},
      {"measurement": "depletion of GFP-positive cells", "setting": "[10]; degron construct with the shortest linker (3 aa, GGS)", "value": "depleted GFP-positive cells"},
      {"measurement": "depletion of GFP-positive cells", "setting": "[10]; degron constructs with 15 aa and 27 aa linkers (no depletion implied)", "value": "only if they were transfected with the degron-comprising targeting construct with the shortest linker or the superdegron-comprising targeting construct"},
      {"measurement": "depletion of GFP-positive cells", "setting": "[10]; superdegron construct (10 aa linker)", "value": "depleted GFP-positive cells"},
      {"measurement": "growth of unedited parental cells", "setting": "[11]", "value": "did not affect the growth of unedited parental cells"},
      {"measurement": "GAPDH expression by qPCR, untreated vs POM-treated gene-edited cells", "setting": "GAPDH expression", "value": "No large differences in GAPDH expression"},
      {"measurement": "elimination of gene edited cells", "setting": "[12]; 92 hours after addition", "value": "completely eliminated"},
      {"measurement": "time after addition of POM at which cell death rate surpassed proliferation rate", "setting": "[12]; bi-allelic FIG. 7G clone, Incucyte", "value": "around 24 hours"}
    ]}
  ]
}
